From patent US20220273688A1, “Treatment of Glycosylation Deficiency Diseases” (Wellstat Therapeutics Corporation, priority 2014, published 2022)

How the values were obtained:
[1] = test system: Phosphoglucomutase-1 (PGM-1) deficiency; conditions: galactose 0.5 to 1 g/kg per day; cited from earlier work
[2] = test system: patient with congenital disorder of glycosylation (reduced availability of a uridine-diphospho sugar); assay: Treatment of a CDG patient with oral uridine triacetate; assay type: in vivo, human; conditions: 2 grams per square meter of body surface area, three times per day
Experimental: A patient displaying developmental delays is diagnosed with a congenital disorder of glycosylation by detection of a mutation affecting glycosylation by reducing availability of a uridine-diphospho sugar, corroborated by biochemical measurements in cells from the patient. The patient is treated with oral uridine triacetate at a dose of 2 grams per square meter of body surface area, administered three times per day.

[3] = test system: patient with GNE myopathy; assay: Treatment of a GNE myopathy patient with N-acetylmannosamine plus uridine triacetate; assay type: in vivo, human; conditions: uridine triacetate 2 g/m2 BSA twice per day with oral N-acetylmannosamine 3 to 10 grams per day
Experimental: A patient displaying progressive distal muscle weakness, with vacuoles and filamentous inclusions in a muscle biopsy, is diagnosed with GNE myopathy by testing for mutations in GNE, which result in impaired synthesis of endogenous sialic acid. The patient is treated with oral N-acetylmannosamine at a dose of 3 to 10 grams per day. The patient is also treated with uridine triacetate a dosage of 2 grams per square meter of body surface area administered twice per day.

[4] = test system: patient with phosphoglucomutase-1 deficiency (Type II CDG); assay: Treatment of a phosphoglucomutase-1 deficiency patient with d-galactose plus uridine triacetate; assay type: in vivo, human; conditions: uridine triacetate 2 g/m2 BSA twice per day with 1 gram/kg d-galactose per day
Excerpt: A patient with multisystem disease consistent with phosphoglucomutase deficiency receives a definitive diagnosis via detection of impaired transferring glycosylation and a mutation in PGM-1.

[5] = test system: patient with GPT deficiency (Type II CDG); assay: Treatment of a GPT deficiency patient with N-acetylglucosamine plus uridine triacetate; assay type: in vivo, human; conditions: uridine triacetate 2 g/m2 BSA twice per day with N-acetylglucosamine 200 mg/kg per day
Experimental: A patient displaying severe hypotonia, medically intractable seizures, developmental delay andmicrocephaly is diagnosed with a deficiency of activity of the enzyme GPT, a Type II CDG, by detection of a mutation in its encoding gene DPAGT-1. (“GPT” is the enzyme dolichol phosphate N-acetyl-glucosamine-1 phosphate transferase; “DPAGT-1” is the gene that encodes GPT.) The patient is treated with N-acetylglucosamine at a dose of 200 mg/kg per day. The patient is also treated with uridine triacetate a dosage of 2 grams per square meter of body surface area administered twice per day.

Row | Compound | symptom resolution [1] | response to treatment (protein glycosylation and clinical condition) [2] | clinical response versus N-acetylmannosamine alone [3] | clinical response versus d-galactose alone [4] | clinical response versus N-acetylglucosamine alone [5]
1 | O=C[C@H](O)[C@@H](O)[C@@H](O)[C@H](O)CO [galactose] | partial resolution of some symptoms |  |  |  | 
2 | CC(=O)OC[C@H]1O[C@@H](n2ccc(=O)[nH]c2=O)[C@H](OC(C)=O)[C@@H]1OC(C)=O [uridine triacetate, 2′,3′,5′-tri-O-acetyluridine] |  | responds to treatment, displaying biochemical measures of improved protein glycosylation and concurrent improvements in clinical condition | improves the clinical response beyond that achieved with N-acetylmannosamine alone | improves the clinical response beyond that achieved with d-galactose alone | improves the clinical response beyond that achieved with N-acetylglucosamine alone
